{"source": "patent US10556865B2", "about": "“Synergistic herbicidal composition containing certain pyridine or pyrimidine carboxylic acids and certain cereal and rice herbicides” (Dow AgroSciences, LLC, priority 2007, dated 2020)", "format_in_all_cases": "in vivo", "key": {"Scirpus species (SCPSS)": {"test_system": "Scirpus species (SCPSS)", "experiment": "Herbicidal mixtures for weed control in transplanted paddy rice (in-water application, visual % injury)", "settings": "SCPJU", "how_it_was_run": "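Weeds sown in flooded puddled mineral soil (pH ~7.3–7.8, ~1.0% organic matter) and treated at second–third true leaf stage by injecting acetone/2.5% Agri-dex stock into the paddy water. A, C and D dosed as acid equivalent, partner herbicides as active ingredient. Injury scored visually after 3 weeks in greenhouse, 0–100% versus untreated plants.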"}, "[1]": {"test_system": "bird's-eye speedwell (Veronica persica L; VERPE)", "experiment": "Postemergence herbicidal activity of mixtures in cereal crops (greenhouse, visual injury)", "settings": "for VERPE Ob: Table 28", "how_it_was_run": "(§1)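 Weeds grown in greenhouse (~14 h photoperiod, ~18/17 °C day/night) to second–third true leaf stage, sprayed postemergence with compound and second cereal herbicide alone or combined; solvent-blank controls. Injury scored visually after 20-22 days, 0–100% (complete kill); expected mixture activity = A+B−(A×B/100).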"}, "[2]": {"test_system": "wild pansy (Viola tricolor L; VIOTR)", "experiment": "Postemergence herbicidal activity of mixtures in cereal crops (greenhouse, visual injury)", "settings": "Viola tricolor, post-emergence, read-out: VIOTR Ob", "how_it_was_run": "as §1"}, "[3]": {"test_system": "Polygonum pensylvanicum L. (POLPY)", "experiment": "Postemergence herbicidal mixtures for weed control in direct seeded rice (greenhouse, visual % injury)", "settings": "for % Injury Ob: POLPY"}, "[4]": {"test_system": "Ischaemum rugosum SALISB. (ISCRU)", "experiment": "Postemergence herbicidal mixtures for weed control in direct seeded rice (greenhouse, visual % injury)"}, "[5]": {"test_system": "Leptochloa chinensis (L.) NEES (LEFCH)", "experiment": "Postemergence herbicidal mixtures for weed control in direct seeded rice (greenhouse, visual % injury)", "settings": "for % Injury Ob: LEFCH"}}, "note": "Values joined by “and” are separate entries in the source; they are usually repeats but may differ in a detail not shown here. Equal values may be shown once. Read-outs that look alike come from different tables or passages of the source."}
{"smiles": "COC(=O)c1nc(-c2ccc(Cl)c(OC)c2F)cc(N)c1Cl", "note": "[Compound A Methyl, 4-amino-3-chloro-6-(4-chloro-2-fluoro-3-methoxyphenyl)pyridine-2-carboxylic acid methyl ester]", "values": [{"measurement": "% Injury Ob", "setting": "Scirpus species (SCPSS); 17.5 g/ha alone", "result": 90, "unit": "%"}, {"measurement": "pest or weed control at 17.5 g/ha", "setting": "[1]; Veronica persica, post-emergence, 17.5 g/ha, read-out: VERPE Ob", "result": 45, "unit": "%"}, {"measurement": "pest or weed control at 35 g/ha", "setting": "[1]; Veronica persica, post-emergence, 35 g/ha, read-out: VERPE Ob", "result": 58, "unit": "%"}, {"measurement": "pest or weed control at 70 g/ha", "setting": "[1]; Veronica persica, post-emergence, 70 g/ha, read-out: VERPE Ob", "result": 70, "unit": "%"}, {"measurement": "pest or weed control at 17.5 g/ha", "setting": "[2]; 17.5 g/ha", "result": 55, "unit": "%"}, {"measurement": "pest or weed control at 35 g/ha", "setting": "[2]; 35 g/ha", "result": 63, "unit": "%"}, {"measurement": "pest or weed control at 70 g/ha", "setting": "[2]; 70 g/ha", "result": 75, "unit": "%"}, {"measurement": "% Injury Ob", "setting": "[3]; 4.38 g/ha alone", "result": 10, "unit": "%"}, {"measurement": "% Injury Ob", "setting": "[3]; 8.75 g/ha alone", "result": 50, "unit": "%"}, {"measurement": "% Injury POLPY Ob", "setting": "[3]; alone 4.38 g/ha", "result": 50, "unit": "%"}, {"measurement": "% Injury POLPY Ob", "setting": "[3]; alone 8.75 g/ha", "result": 60, "unit": "%"}, {"measurement": "% Injury ISCRU Ob", "setting": "[4]; alone 8.75 g/ha", "result": 50, "unit": "%"}, {"measurement": "% Injury ISCRU Ob", "setting": "[4]; alone 17.5 g/ha", "result": 55, "unit": "%"}, {"measurement": "% Injury Ob", "setting": "[5]; 17.5 g/ha alone", "result": "75% and 50%"}, {"measurement": "% Injury Ob", "setting": "[5]; 35 g/ha alone", "result": 90, "unit": "%"}, {"measurement": "% Injury LEFCH Ob", "setting": "[5]; alone 4.38 g/ha", "result": 30, "unit": "%"}, {"measurement": "% Injury LEFCH Ob", "setting": "[5]; alone 8.75 g/ha", "result": 40, "unit": "%"}]}
{"smiles": "COc1c(Cl)ccc(-c2cc(N)c(Cl)c(C(=O)O)n2)c1F", "note": "[Compound A TEA, 4-amino-3-chloro-6-(4-chloro-2-fluoro-3-methoxyphenyl)pyridine-2-carboxylic acid]", "values": [{"measurement": "% Injury Ob", "setting": "Scirpus species (SCPSS); 17.5 g/ha alone", "result": 60, "unit": "%"}, {"measurement": "% Injury Ob", "setting": "Scirpus species (SCPSS); 35 g/ha alone", "result": 85, "unit": "%"}, {"measurement": "% Injury Ob", "setting": "Scirpus species (SCPSS); 70 g/ha alone", "result": 95, "unit": "%"}, {"measurement": "VERPE Ob", "setting": "[1]; 35 g/ha", "result": 75, "unit": "%"}, {"measurement": "VERPE Ob", "setting": "[1]; 70 g/ha", "result": 80, "unit": "%"}, {"measurement": "VERPE Ob", "setting": "[1]; 140 g/ha", "result": 85, "unit": "%"}, {"measurement": "pest or weed control at 8.75 g/ha", "setting": "[1]; Veronica persica, post-emergence, 8.75 g/ha alone, read-out: VERPE Ob", "result": 48, "unit": "%"}, {"measurement": "pest or weed control at 17.5 g/ha", "setting": "[1]; Veronica persica, post-emergence, 17.5 g/ha alone, read-out: VERPE Ob", "result": 68, "unit": "%"}, {"measurement": "pest or weed control at 35 g/ha", "setting": "[1]; Veronica persica, post-emergence, 35 g/ha alone, read-out: VERPE Ob", "result": 79, "unit": "%"}, {"measurement": "pest or weed control at 35 g/ha", "setting": "[1]; Veronica persica, post-emergence, 35 g/ha, 1st VERPE column, read-out: VERPE Ob", "result": 60, "unit": "%"}, {"measurement": "pest or weed control at 35 g/ha", "setting": "[1]; Veronica persica, post-emergence, 35 g/ha, 2nd VERPE column, read-out: VERPE Ob", "result": 75, "unit": "%"}, {"measurement": "pest or weed control at 70 g/ha", "setting": "[1]; Veronica persica, post-emergence, 70 g/ha alone, read-out: VERPE Ob", "result": 88, "unit": "%"}, {"measurement": "pest or weed control at 70 g/ha", "setting": "[1]; Veronica persica, post-emergence, 70 g/ha, 1st VERPE column, read-out: VERPE Ob", "result": 60, "unit": "%"}, {"measurement": "pest or weed control at 70 g/ha", "setting": "[1]; Veronica persica, post-emergence, 70 g/ha, 2nd VERPE column, read-out: VERPE Ob", "result": 80, "unit": "%"}, {"measurement": "pest or weed control at 140 g/ha", "setting": "[1]; Veronica persica, post-emergence, 140 g/ha, 1st VERPE column, read-out: VERPE Ob", "result": 60, "unit": "%"}, {"measurement": "pest or weed control at 140 g/ha", "setting": "[1]; Veronica persica, post-emergence, 140 g/ha, 2nd VERPE column, read-out: VERPE Ob", "result": 85, "unit": "%"}, {"measurement": "pest or weed control at 8.75 g/ha", "setting": "[2]; 8.75 g/ha alone", "result": 30, "unit": "%"}, {"measurement": "pest or weed control at 17.5 g/ha", "setting": "[2]; 17.5 g/ha alone", "result": 40, "unit": "%"}, {"measurement": "pest or weed control at 35 g/ha", "setting": "[2]; 35 g/ha alone", "result": 47, "unit": "%"}, {"measurement": "pest or weed control at 35 g/ha", "setting": "[2]; 35 g/ha", "result": 30, "unit": "%"}, {"measurement": "pest or weed control at 70 g/ha", "setting": "[2]; 70 g/ha alone", "result": 60, "unit": "%"}, {"measurement": "pest or weed control at 70 g/ha", "setting": "[2]; 70 g/ha", "result": 60, "unit": "%"}, {"measurement": "pest or weed control at 140 g/ha", "setting": "[2]; 140 g/ha", "result": 60, "unit": "%"}]}
